Results published in US20210301349A1, “COMPOSITIONS AND METHODS FOR TREATING A TUMOR SUPPRESSOR DEFICIENT CANCER” (BETH ISRAEL DEACONESS MEDICAL CENTER, INC., priority 2016, published 2021).
Where “and” joins values, the source holds several entries; their conditions need not be identical. Identical values can stand only once. Entries after “also recorded” stand apart in the source; their conditions may differ.

What was measured:
Assay type in all cases: in vivo, mouse
[1] = tested on: Pten^pc−/−; Trp53^pc−/− prostate tumors; assay: Tumor growth by MRI in Pten^pc−/−; Trp53^pc−/− mice under drug or antibody treatment; conditions: for tumor volume: individual mice
Protocol: Mice were allocated at random to experimental groups and studies were performed in an unblended manner. For treatment with the CXCR2 antagonist, SB225002 (Cayman Chemical #13336) was dissolved in DMSO (10 mg/ml) and diluted in vehicle (0.9% NaCl, 0.3% Tween 80) for in vivo administration. Mice (4 months of age) were treated daily for 10 days by intraperitoneal injection (5 mg/kg) and prostate tumor tissue (anterior lobes) was subjected to Flow Cytometry and histological analysis. For MRI analysis, mice (4 months of age) were treated daily for 21 days (Pten^pc−/−; Zbtb7a^pc−/−), for 14 days (Pten^pc−/−; Trp53^pc−/−) or for 14 days (Pten^pc−/−; Pml^pc−/−) by intraperitoneal injection (5 mg/kg). For depletion of Gr-1+/CD11b+ cells, Ly6G-depletion antibody (1A8, BioXcell) and control Rat IgG2a antibody (BioXcell) were diluted in phosphate-buffered saline (PBS) for in vivo administration. Mice (4 months of age) were treated every other day for 10 days by intraperitoneal injection (200-300 μg/mouse). InVivoMAb anti-mouse Ly6G/Ly6C (Gr-1) antibody, clone RB6-8C5 (BE0075, BioXcell), and control Rat IgG2b antibody (BE0090, BioXcell) were diluted in PBS and Pten^pc−/−; Trp53^pc−/− mice were treated every other day for 14 days by intraperitoneal injection (200 μg/mouse). For neutralization of CXCL5, anti-Mouse CXCL5 antibody (Leinco Technologies) and control Rat IgG2a antibody (BioXcell) were diluted in PBS and injected every other day for 21 days by intraperitoneal injection (20 μg/mouse). Tumor volume quantification was performed by using VivoQuant and Image J software. All mouse prostate MRI imaging analysis was performed at Small Animal Imaging Core at BIDMC and acquired on an ASPECT Model M2 1T tabletop scanner.

[2] = tested on: Pten^pc−/−; Pml^pc−/− prostate tumors; assay: Flow cytometry of immune infiltrate in treated Pten^pc−/−; Pml^pc−/− prostate tumors; conditions: Pml^pc−/− prostate tumors after treatment
Protocol: (§1) Mice were allocated at random to experimental groups and studies were performed in an unblended manner. For treatment with the CXCR2 antagonist, SB225002 (Cayman Chemical #13336) was dissolved in DMSO (10 mg/ml) and diluted in vehicle (0.9% NaCl, 0.3% Tween 80) for in vivo administration. Mice (4 months of age) were treated daily for 10 days by intraperitoneal injection (5 mg/kg) and prostate tumor tissue (anterior lobes) was subjected to Flow Cytometry and histological analysis. For MRI analysis, mice (4 months of age) were treated daily for 21 days (Pten^pc−/−; Zbtb7a^pc−/−), for 14 days (Pten^pc−/−; Trp53^pc−/−) or for 14 days (Pten^pc−/−; Pml^pc−/−) by intraperitoneal injection (5 mg/kg). For depletion of Gr-1+/CD11b+ cells, Ly6G-depletion antibody (1A8, BioXcell) and control Rat IgG2a antibody (BioXcell) were diluted in phosphate-buffered saline (PBS) for in vivo administration. Mice (4 months of age) were treated every other day for 10 days by intraperitoneal injection (200-300 μg/mouse). […] Tumor volume quantification was performed by using VivoQuant and Image J software. […]
(§2) For Flow Cytometry, spleen and lymph node single cell suspensions were prepared by mashing the tissue in 2% FBS/PBS. […] All staining mixtures were analyzed on a BD LSR II flow cytometer (Becton Dickinson). Resulting profiles were further processed and analyzed using the FlowJo 8.7 software.

[3] = tested on: Pten^pc−/−; Zbtb7a^pc−/− prostate tumors; assay: Flow cytometry of immune infiltrate in treated Pten^pc−/−; Zbtb7a^pc−/− prostate tumors; conditions: Zbtb7a^pc−/− prostate tumors after treatment
Protocol: as §1, §2

## O=C(Nc1ccc([N+](=O)[O-])cc1O)Nc1ccccc1Br [SB225002]
[1]; Pten-Trp53, CXCR2i (SB225002 5 mg/kg i.p. daily), row 0 = day 0 baseline, MRI
  tumor volume: 67.016 mm3 and 32.276 mm3 and 66.382 mm3
[1]; Pten-Trp53, CXCR2i, row 1 (weekly MRI)
  tumor volume: 53.809 mm3 and 31.739 mm3 and 68.018 mm3
[1]; Pten-Trp53, CXCR2i, row 2 (weekly MRI, 2 weeks on treatment)
  tumor volume: 51.807 mm3 and 39.795 mm3 and 63.477 mm3
[1]; Pten^pc−/−, Trp53^pc−/− mice, versus vehicle or control IgG
  tumor growth: significantly suppressed the tumor growth; also recorded: significant inhibition of tumor growth
[2]
  intra-tumoral Gr-1+/CD11b+ cells: decrease of Gr-1+/CD11b+ cells
[3]
  intra-tumoral Gr-1+/CD11b+ cells: decrease of Gr-1+/CD11b+ cells
